Data published in ChEMBL document CHEMBL5042510, “Structure-Guided Discovery of Aminoquinazolines as Brain-Penetrant and Selective LRRK2 Inhibitors” (J Med Chem, 2022).
≈ marks a conversion by molar mass, not a printed value.

Columns and labels:
[1] = biological target: Leucine-rich repeat serine/threonine-protein kinase 2 (Homo sapiens) (UniProt Q5S007); assay: Ex vivo inhibition of LRRK2 in human PBMC assessed as unbound concentration required for reduction in LRRK2 phosphorylation at Ser935 residue incubated for 90 mins by MSD assay; assay type: cell-based
Chain of Leucine-rich repeat serine/threonine-protein kinase 2 (Homo sapiens) (Q5S007 whole entry): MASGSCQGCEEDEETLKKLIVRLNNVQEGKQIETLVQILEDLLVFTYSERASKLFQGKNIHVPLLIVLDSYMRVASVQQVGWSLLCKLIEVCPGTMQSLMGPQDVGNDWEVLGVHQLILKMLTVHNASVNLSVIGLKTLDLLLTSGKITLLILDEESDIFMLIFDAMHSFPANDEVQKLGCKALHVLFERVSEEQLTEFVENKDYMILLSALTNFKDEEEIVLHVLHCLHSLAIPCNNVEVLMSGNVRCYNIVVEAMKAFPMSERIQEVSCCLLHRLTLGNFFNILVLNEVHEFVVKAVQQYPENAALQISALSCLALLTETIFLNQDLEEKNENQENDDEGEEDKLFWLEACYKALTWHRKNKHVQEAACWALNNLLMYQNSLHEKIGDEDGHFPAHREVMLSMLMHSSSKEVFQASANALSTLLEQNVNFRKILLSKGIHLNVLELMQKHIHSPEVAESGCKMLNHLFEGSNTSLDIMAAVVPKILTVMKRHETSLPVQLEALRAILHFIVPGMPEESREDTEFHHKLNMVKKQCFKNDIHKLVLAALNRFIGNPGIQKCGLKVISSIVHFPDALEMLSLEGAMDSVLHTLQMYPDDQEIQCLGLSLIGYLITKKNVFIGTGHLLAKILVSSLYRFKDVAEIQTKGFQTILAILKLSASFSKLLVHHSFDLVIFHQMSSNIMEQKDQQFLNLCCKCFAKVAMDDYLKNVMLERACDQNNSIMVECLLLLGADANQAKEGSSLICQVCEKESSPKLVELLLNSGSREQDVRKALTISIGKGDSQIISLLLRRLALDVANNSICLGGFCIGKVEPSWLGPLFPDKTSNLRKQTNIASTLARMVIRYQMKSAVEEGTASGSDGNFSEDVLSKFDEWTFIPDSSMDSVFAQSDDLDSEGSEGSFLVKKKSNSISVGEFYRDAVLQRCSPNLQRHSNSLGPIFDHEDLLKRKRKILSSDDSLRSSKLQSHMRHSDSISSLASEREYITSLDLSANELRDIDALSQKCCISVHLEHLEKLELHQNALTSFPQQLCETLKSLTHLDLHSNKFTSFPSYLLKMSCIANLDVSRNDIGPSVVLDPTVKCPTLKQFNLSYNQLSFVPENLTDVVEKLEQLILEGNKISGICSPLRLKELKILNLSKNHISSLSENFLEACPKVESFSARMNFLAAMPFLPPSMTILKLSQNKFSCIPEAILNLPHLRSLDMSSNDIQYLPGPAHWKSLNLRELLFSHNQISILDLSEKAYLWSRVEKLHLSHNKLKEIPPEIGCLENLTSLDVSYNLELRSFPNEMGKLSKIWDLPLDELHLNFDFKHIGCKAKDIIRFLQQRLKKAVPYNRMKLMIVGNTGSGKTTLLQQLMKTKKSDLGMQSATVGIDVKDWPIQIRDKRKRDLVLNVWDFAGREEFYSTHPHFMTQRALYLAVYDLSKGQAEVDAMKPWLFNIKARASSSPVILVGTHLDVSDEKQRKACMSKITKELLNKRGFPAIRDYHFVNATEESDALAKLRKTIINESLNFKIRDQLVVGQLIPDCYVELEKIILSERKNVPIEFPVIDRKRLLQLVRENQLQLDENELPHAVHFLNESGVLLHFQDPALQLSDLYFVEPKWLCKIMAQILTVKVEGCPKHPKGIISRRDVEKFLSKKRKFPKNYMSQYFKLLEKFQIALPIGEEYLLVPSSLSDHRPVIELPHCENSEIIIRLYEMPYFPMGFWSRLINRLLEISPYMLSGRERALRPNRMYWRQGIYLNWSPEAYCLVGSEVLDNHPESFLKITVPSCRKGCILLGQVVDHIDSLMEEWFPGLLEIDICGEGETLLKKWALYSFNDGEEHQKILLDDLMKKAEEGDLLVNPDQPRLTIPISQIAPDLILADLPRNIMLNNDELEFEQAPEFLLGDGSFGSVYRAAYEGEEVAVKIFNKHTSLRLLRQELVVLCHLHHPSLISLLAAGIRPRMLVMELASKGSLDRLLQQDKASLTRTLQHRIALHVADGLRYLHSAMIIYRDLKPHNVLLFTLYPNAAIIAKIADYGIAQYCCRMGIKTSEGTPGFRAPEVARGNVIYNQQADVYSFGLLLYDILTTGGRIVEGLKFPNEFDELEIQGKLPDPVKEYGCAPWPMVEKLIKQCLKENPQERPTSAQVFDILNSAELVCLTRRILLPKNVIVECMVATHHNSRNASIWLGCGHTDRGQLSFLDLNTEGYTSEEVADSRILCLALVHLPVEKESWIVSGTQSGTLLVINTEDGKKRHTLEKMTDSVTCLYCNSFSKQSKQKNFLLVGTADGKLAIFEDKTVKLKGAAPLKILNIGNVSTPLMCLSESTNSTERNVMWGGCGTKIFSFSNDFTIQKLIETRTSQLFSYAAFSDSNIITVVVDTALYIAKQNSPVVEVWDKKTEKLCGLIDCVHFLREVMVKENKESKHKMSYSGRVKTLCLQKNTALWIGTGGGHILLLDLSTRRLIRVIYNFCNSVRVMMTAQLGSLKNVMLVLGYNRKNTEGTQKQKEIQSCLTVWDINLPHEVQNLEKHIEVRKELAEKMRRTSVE

[2] = Cardiotoxicity in telemetered Wistar Han rat assessed as NOAEL at 30 mg/kg, po; assay type: toxicity, organism-based; settings: in vivo
UGT1A6 = assay: Toxicity in rat assessed as fold increase in UGT1A6 transcriptional activity in liver at 75 mg/kg, po bid administered for 4 days relative to control; assay type: organism-based; settings: time 4 day, read-out: FC
[3] = Thermodynamic solubility of the compound in FaSSIF measured after 24 hrs by reverse phase UPLC analysis; assay type: physicochemical; settings: read-out: Therm_solubility
[4] = MRT in Rhesus monkey at 3 mg/kg, iv by LC-MS/MS analysis; assay type: ADME, organism-based, Macaca mulatta; settings: in vivo
[5] = biological target: Leucine-rich repeat serine/threonine-protein kinase 2 (Homo sapiens, UniProt Q5S007, G2019S); assay: Inhibition of recombinant N-terminal GST-fused LRRK2 […] mutant (970 to 2527 residues) (unknown origin) preincubated with enzyme for 15 mins followed by fluorescein-labeled LRRKtide peptide substrate and ATP addition for 90 mins by TR-FRET assay
Chain of Leucine-rich repeat serine/threonine-protein kinase 2 (Q5S007 whole entry G2019S, the tested form may be a part): as the sequence (Q5S007 whole entry) above, with G2019S counted along it

[6] = Intrinsic clearance in Rhesus monkey at 3 mg/kg, iv by LC-MS/MS analysis; assay type: ADME, organism-based, Macaca mulatta; settings: in vivo
[7] = Cardiotoxicity in guinea pig assessed as increase in QTc level at 157X unbound EM infused via iv consecutively for 20 mins; assay type: toxicity, organism-based, Cavia porcellus; settings: in vivo
[8] = Toxicity in rat bone marrow at 40 to 400 mg/kg, po qd administered for 4 days by micronucleus assay; assay type: organism-based; settings: in vivo, 96 h, dose 40-400 mg/kg, time 4 day
[9] = Cardiotoxicity in telemetered Wistar Han rat assessed as elevation of systolic blood pressure at 100 mg/kg, po; assay type: toxicity, organism-based; settings: in vivo
Salmonella typhimurium [10] = assay: Mutagenicity in Salmonella typhimurium TA100 at 30 to 5000 ug incubated for 48 hrs in presence of liver S9 fraction by AMES test; assay type: toxicity, organism-based, Salmonella enterica subsp. enterica serovar Typhimurium; settings: s9, 48 h, dose 30-5000 µg
[11] = In vivo inhibition of LRRK2 in CD rat assessed as reduction in phosphorylation at Ser935 residue in striatum at 3 mg/kg, po measured after 2 hrs by MSD assay; assay type: functional
[12] = Toxicity in rat assessed as fold increase in serum ALT levels at 150 mg/kg, po qd administered for 4 days; assay type: organism-based; settings: in vivo, 96 h, time 4 day
[13] = Intrinsic clearance in human hepatocytes at 0.3 uM incubated for 90 mins by LC/MS/MS analysis; assay type: ADME, cell-based, Hepatocyte; settings: read-out: CLH
[14] = tested on: Leucine-rich repeat serine/threonine-protein kinase 2 (Homo sapiens), Q5S007 [G2019S]; assay: Inhibition of LRRK2 […] mutant expressed in human SH-SY5Y cells assessed as unbound concentration required for inhibition of phosphorylation of LRRK2 at Ser935 residue incubated for 90 mins by MSD assay; assay type: cell-based
Chain of Leucine-rich repeat serine/threonine-protein kinase 2 (Homo sapiens), Q5S007 [G2019S] (Q5S007 whole entry G2019S): as the sequence (Q5S007 whole entry) above, with G2019S counted along it

[15] = Dissociation constant, pKa of the compound; assay type: physicochemical
[16] = MRT in Beagle dog at 1 mg/kg, iv by LC-MS/MS analysis; assay type: ADME, organism-based, Canis lupus familiaris; settings: in vivo
[17] = Toxicity in rat assessed as clinical signs of toxicity at 40 to 400 mg/kg, po qd administered for 4 days; assay type: organism-based; settings: in vivo, 96 h, dose 40-400 mg/kg, time 4 day
[18] = Toxicity in rat assessed as positive tissue transcriptional score at 40 to 400 mg/kg, po qd administered for 4 days; assay type: organism-based; settings: in vivo, 96 h, dose 40-400 mg/kg, time 4 day
[19] = Unbound brain-to-plasma concentration ratio in CD rat 1 to 100 mg/kg, po measured after 120 mins by LC/MS/MS analysis; assay type: ADME, organism-based; settings: brain and plasma (unbound), dose 1-100 mg/kg, read-out: K(p,uu,brain)
mouse Bcrp [20] = assay: Efflux ratio of apparent permeability across basolateral to apical over apical to basolateral side in mouse Bcrp-transfected dog MDCK-II cells at 0.1 to 1 uM measured after 3 hrs by LC/MS/MS analysis; assay type: ADME, cell-based, Canis lupus familiaris; settings: dose 0.1-1 µM
[21] = In vivo inhibition of LRRK2 in CD rat assessed as reduction in phosphorylation at Ser935 residue in striatum at 1 mg/kg, po measured after 2 hrs by MSD assay; assay type: functional
[22] = Toxicity in rat assessed as elevation of inflammatory response related gene expression at 10 to 75 mg/kg, po bid administered for 4 days; assay type: organism-based; settings: in vivo, 96 h, dose 10-75 mg/kg, time 4 day
[23] = biological target: Mitogen-activated protein kinase 3 (Homo sapiens, UniProt P27361); assay: Inhibition of ERK1 (unknown origin)
Chain of Mitogen-activated protein kinase 3 (P27361 whole entry): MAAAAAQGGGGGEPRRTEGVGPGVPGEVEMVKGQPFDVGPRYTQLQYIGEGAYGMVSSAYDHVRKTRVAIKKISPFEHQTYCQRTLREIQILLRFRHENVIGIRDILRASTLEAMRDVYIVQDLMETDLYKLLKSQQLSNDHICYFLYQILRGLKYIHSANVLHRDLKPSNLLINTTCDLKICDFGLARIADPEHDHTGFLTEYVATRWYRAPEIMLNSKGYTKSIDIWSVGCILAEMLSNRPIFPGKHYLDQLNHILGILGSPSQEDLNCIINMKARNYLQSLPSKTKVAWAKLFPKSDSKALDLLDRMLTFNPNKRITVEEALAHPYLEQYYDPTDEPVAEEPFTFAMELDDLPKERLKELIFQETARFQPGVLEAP

[24] = biological target: Voltage-gated inwardly rectifying potassium channel KCNH2 (Homo sapiens, UniProt Q12809); assay: Inhibition of human ERG by voltage clamp assay; assay type: toxicity
Chain of Voltage-gated inwardly rectifying potassium channel KCNH2 (Q12809 whole entry): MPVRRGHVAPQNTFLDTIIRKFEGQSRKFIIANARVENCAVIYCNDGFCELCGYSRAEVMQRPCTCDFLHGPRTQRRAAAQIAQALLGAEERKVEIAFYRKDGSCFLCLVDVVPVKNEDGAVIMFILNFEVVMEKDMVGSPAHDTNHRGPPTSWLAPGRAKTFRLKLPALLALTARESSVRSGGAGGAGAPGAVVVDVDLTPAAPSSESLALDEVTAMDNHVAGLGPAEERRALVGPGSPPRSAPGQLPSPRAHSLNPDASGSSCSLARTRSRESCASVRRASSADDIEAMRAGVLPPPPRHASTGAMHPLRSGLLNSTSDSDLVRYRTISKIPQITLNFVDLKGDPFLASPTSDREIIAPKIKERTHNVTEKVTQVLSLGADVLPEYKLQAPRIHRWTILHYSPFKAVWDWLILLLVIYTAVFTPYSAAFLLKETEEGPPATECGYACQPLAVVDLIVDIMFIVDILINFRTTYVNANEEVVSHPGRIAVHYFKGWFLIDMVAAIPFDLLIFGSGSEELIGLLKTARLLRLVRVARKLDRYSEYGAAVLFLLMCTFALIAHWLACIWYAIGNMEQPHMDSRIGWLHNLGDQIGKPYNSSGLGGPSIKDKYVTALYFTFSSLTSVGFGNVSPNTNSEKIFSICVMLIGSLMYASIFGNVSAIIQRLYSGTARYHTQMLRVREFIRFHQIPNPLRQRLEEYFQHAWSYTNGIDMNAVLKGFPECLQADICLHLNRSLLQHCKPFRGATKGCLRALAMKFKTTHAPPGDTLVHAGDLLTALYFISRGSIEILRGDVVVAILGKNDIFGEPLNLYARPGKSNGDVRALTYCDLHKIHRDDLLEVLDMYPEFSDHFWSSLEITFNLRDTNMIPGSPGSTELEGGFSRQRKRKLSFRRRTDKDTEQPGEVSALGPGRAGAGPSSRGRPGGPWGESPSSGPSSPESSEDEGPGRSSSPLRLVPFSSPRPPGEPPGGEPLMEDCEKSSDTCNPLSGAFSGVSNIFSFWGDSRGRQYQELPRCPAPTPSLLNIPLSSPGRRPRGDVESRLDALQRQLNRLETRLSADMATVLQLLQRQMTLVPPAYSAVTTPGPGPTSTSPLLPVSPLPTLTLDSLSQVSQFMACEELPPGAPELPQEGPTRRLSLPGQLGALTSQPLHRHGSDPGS

[25] = Total plasma clearance in Beagle dog at 1 mg/kg, iv by LC-MS/MS analysis; assay type: ADME, organism-based, Canis lupus familiaris
Salmonella typhimurium [26] = assay: Mutagenicity in Salmonella typhimurium TA1535 at 30 to 5000 ug incubated for 48 hrs in presence of liver S9 fraction by AMES test; assay type: toxicity, organism-based, Salmonella enterica subsp. enterica serovar Typhimurium; settings: s9, 48 h, dose 30-5000 µg
[27] = Cardiotoxicity in telemetered Wistar Han rat assessed as elevation of diastolic blood pressure at 100 mg/kg, po; assay type: toxicity, organism-based; settings: in vivo
rat Mdr1a (P-gp) = assay: Efflux ratio of apparent permeability across basolateral to apical side over apical to basolateral side in rat Mdr1a-transfected pig LLC-PK1 cells at 0.1 to 1 uM measured after 3 hrs by LC/MS/MS analysis; assay type: ADME, cell-based, Sus scrofa; settings: dose 0.1-1 µM
[28] = Unbound fraction in CD rat brain at 1 to 100 mg/kg, po measured after 120 mins by LC/MS/MS analysis; assay type: ADME, organism-based; settings: in vivo, 2 h, dose 1-100 mg/kg
[29] = Intrinsic clearance in Beagle dog at 1 mg/kg, iv by LC-MS/MS analysis; assay type: ADME, organism-based, Canis lupus familiaris; settings: in vivo
[30] = Toxicity in rat assessed as reduction in weight gain at 150 mg/kg, po qd administered for 4 days; assay type: organism-based; settings: in vivo, 96 h, time 4 day
[31] = Intrinsic clearance in rat hepatocytes at 0.3 uM incubated for 90 mins by LC/MS/MS analysis; assay type: ADME, cell-based, Hepatocyte; settings: read-out: CLH
CYP1A1 = assay: Toxicity in rat assessed as fold induction of CYP1A1 transcriptional activity in liver at 10 to 75 mg/kg, po bid administered for 4 days relative to control; assay type: organism-based; settings: dose 10-75 mg/kg, time 4 day, read-out: FC
Substance-P receptor = Substance-P receptor (Homo sapiens, UniProt P25103); assay: Inhibition of tachykinin NK1 receptor (unknown origin)
Chain of Substance-P receptor (P25103 whole entry): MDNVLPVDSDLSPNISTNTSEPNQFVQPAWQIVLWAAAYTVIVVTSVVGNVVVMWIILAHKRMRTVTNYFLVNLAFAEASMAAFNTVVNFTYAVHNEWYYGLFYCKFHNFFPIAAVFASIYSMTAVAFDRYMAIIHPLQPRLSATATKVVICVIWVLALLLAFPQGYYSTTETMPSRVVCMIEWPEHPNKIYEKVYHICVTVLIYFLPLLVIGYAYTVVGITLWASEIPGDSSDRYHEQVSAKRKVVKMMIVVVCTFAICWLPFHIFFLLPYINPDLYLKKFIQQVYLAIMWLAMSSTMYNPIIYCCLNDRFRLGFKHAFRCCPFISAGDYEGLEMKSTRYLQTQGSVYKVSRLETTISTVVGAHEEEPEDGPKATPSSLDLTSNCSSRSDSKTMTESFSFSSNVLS

mouse Bcrp [32] = assay: Apparent permeability in mouse Bcrp-transfected dog MDCK-II cells at 0.1 to 1 uM measured after 3 hrs by LC/MS/MS analysis; assay type: ADME, cell-based, Canis lupus familiaris; settings: dose 0.1-1 µM
[33] = In vivo inhibition of LRRK2 in CD rat assessed as reduction in phosphorylation at Ser935 residue in striatum at 30 mg/kg, po measured after 2 hrs by MSD assay; assay type: functional
[34] = Toxicity in rat assessed as body weight loss at 400 mg/kg, po qd administered for 4 days; assay type: organism-based; settings: in vivo, 96 h, time 4 day
[35] = Total plasma clearance in Rhesus monkey at 3 mg/kg, iv by LC-MS/MS analysis; assay type: ADME, organism-based, Macaca mulatta

For `O[C@H]1COC[C@H]1N1CC[C@@H](c2cc3nc(Nc4cnn([C@@H]5CC5(F)F)c4Cl)ncc3cc2Cl)[C@H](F)C1`, the fIC50 [1] was 1.9 nM, the Activity [2] was “Non-Toxic” and the fold induction at 96 h (UGT1A6) was 2.5. For the same molecule, the solubility thermodynamic at 24 h [3] was 4 µg/mL (≈ 7.36 µM), the MRT [4] was 5.2 h and the IC50 [5] was less than 0.0006 µM. For the same molecule, the CL [6] was 1295 mL/min/kg, the Activity [7] was 2% and the Activity [8] was “Non-Toxic”. The Activity [9] was “Toxic”, the Activity (Salmonella typhimurium [10]) was “Non-Toxic” and the inhibition in vivo at 3 mg/kg [11] was 32%. The “fold change (FC)” value [12] was 2, the CLint scaled at 0.3 µM [13] was 116 mL/min/kg and the fIC50 [14] was 0.57 nM. The pKa [15] was 5.65, the MRT [16] was 24 h and the Activity [17] was “Non-Toxic”. The Activity [18] was “Non-Toxic”, the Kp uu at 2 h [19] was 0.36 and the efflux ratio at 3 h, up to 1 µM (mouse Bcrp [20]) was 3.8. The inhibition in vivo at 1 mg/kg [21] was 7%, the Activity [22] was “Non-Toxic” and the IC50 [23] was 1.8 µM. The IC50 [24] was 9.7 µM, the clearance [25] was 9 mL/min/kg and the Activity (Salmonella typhimurium [26]) was “Non-Toxic”. For the same molecule, the Activity [27] was “Toxic”, the efflux ratio at 3 h, up to 1 µM (rat Mdr1a (P-gp)) was 3.7 and the “Cp(f)” value [28] was 3.7 nM. The CL [29] was 445 mL/min/kg, the Activity [30] was “Toxic” and the CLint scaled at 0.3 µM [31] was 248 mL/min/kg. It also gave a fold induction at 96 h (CYP1A1) of 3, an IC50 (Substance-P receptor) of 5.7 µM and a Papp at 3 h, up to 1 µM (mouse Bcrp [32]) of 28 ×10⁻⁶ cm/s. For the same molecule, the inhibition in vivo at 30 mg/kg [33] was 92%, the Activity [34] was “Toxic” and the clearance [35] was 21 mL/min/kg.
